Laboratory results from patent US11713307B2, “Heteroaryl-biphenyl amides for the treatment of PD-L1 diseases” (CHEMOCENTRYX, INC., priority 2019, dated 2023).

Target: human PD-L1 (Homo sapiens (Human), UniProt Q9NZQ7)
Assay: Enzyme-Linked Immunosorbent Assay—ELISA (PD-1/PD-L1 binding)
Conditions: plates coated with human PD-L1; Human PD-1 and biotin added; absorbance at 450 nm
Protocol: 96 Well plates were coated with 1 μg/mL of human PD-L1 (obtained from R&D) in PBS overnight at 4° C. The wells were then blocked with 2% BSA in PBS (W/V) with 0.05% TWEEN-20 for 1 hour at 37° C. The plates were washed 3 times with PBS/0.05% TWEEN-20 and the compounds were serial diluted (1:5) in dilution medium and added to the ELISA plates. Human PD-1 and biotin 0.3 μg/mL (ACRO Biosystems) were added and incubated for 1 hour at 37° C. then washed 3 times with PBS/0.05% TWEEN-20. A second block was performed with 2% BSA in PBS (W/V)/0.05% TWEEN-20 for 10 min at 37° C. and the plates were washed 3 times with PBS/0.05% TWEEN-20. Streptavidin-HRP was added for 1 hour at 37° C. then the plates were washed 3 times with PBS/0.05% TWEEN-20. TMB substrate was added and reacted for 20 min at 37° C. A stop solution (2 N aqueous H2SO4) was added. The absorbance was read at 450 nm using a micro-plate spectrophotometer. The results are shown in Table 1: IC50 values are provided as follows: from 1000 to 10,000 nM (+); from 10 up to 1000 nM (++); less than 10 nM (+++).

Chain of human PD-L1 (Q9NZQ7 19-239): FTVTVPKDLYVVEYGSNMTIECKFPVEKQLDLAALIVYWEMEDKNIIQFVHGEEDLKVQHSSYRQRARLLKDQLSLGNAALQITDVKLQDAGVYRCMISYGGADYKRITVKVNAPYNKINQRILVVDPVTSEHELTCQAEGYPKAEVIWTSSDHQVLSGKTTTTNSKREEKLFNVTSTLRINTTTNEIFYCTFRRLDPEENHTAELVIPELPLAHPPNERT

Structure (SMILES) | IC50
Cn1cc(C(=O)Nc2cccc(-c3cccc(-c4ccc(CNC[C@@H]5CCC(=O)N5)c(O)n4)c3Cl)c2Cl)c(=O)n(C)c1=O [Compound 1.033] | 10 to 1000 nM
COc1nc(-c2cccc(-c3cccc(NC(=O)c4cn(C)c(=O)n(C)c4=O)c3C)c2Cl)ccc1CNC[C@@H]1CCC(=O)N1C [Compound 1.043] | < 10 nM
COc1nc(-c2cccc(-c3cccc(NC(=O)c4cn(C)c(=O)n(C)c4=O)c3C)c2Cl)ccc1CNC[C@@H](O)CO [Compound 1.044] | < 10 nM
Cc1c(NC(=O)c2cn(C)c(=O)n(C)c2=O)cccc1-c1cccc(-c2ccc(CNC[C@@H]3CCC(=O)N3)c(C(F)(F)F)n2)c1Cl [Compound 1.045] | < 10 nM
COc1nc(-c2cccc(-c3cccc(NC(=O)c4cn(C)c(=O)n(C)c4=O)c3C)c2Cl)ccc1CN1CCC(O)CC1 [Compound 1.046] | < 10 nM
CCOc1nc(-c2cccc(-c3cccc(NC(=O)c4cn(C)c(=O)n(C)c4=O)c3C)c2Cl)ccc1CNC[C@@H]1CCC(=O)N1 [Compound 1.047] | < 10 nM
COc1nc(-c2cccc(-c3cccc(NC(=O)c4cn(C)c(=O)n(C)c4=O)c3C)c2Cl)ccc1CN1CC[C@@](C)(O)C1 [Compound 1.048] | < 10 nM
COc1nc(-c2cccc(-c3cccc(NC(=O)c4cn(C)c(=O)n(C)c4=O)c3C)c2Cl)ccc1CNCC(C)(C)CO [Compound 1.049] | < 10 nM
COc1nc(-c2cccc(-c3cccc(NC(=O)c4cn(C)c(=O)n(C)c4=O)c3C)c2Cl)ccc1CNC(C)(C)CCO [Compound 1.050] | < 10 nM
COc1nc(-c2cccc(-c3cccc(NC(=O)c4cn(C)c(=O)n(C)c4=O)c3C)c2Cl)ccc1CNCC(=O)O [Compound 1.051] | < 10 nM
COc1nc(-c2cccc(-c3cccc(NC(=O)c4cn(C)c(=O)n(C)c4=O)c3C)c2Cl)ccc1CN(C)CCO [Compound 1.052] | < 10 nM
COc1nc(-c2cccc(-c3cccc(NC(=O)c4cn(C)c(=O)n(C)c4=O)c3C)c2Cl)ccc1CN1CC(C)(C(=O)O)C1 [Compound 1.053] | < 10 nM
CCc1nc(-c2cccc(-c3cccc(NC(=O)c4cn(C)c(=O)n(C)c4=O)c3C)c2Cl)ccc1CNC[C@@H]1CCC(=O)N1 [Compound 1.054] | < 10 nM
COc1nc(-c2cccc(-c3cccc(NC(=O)c4cn(C)c(=O)n(C)c4=O)c3C)c2Cl)ccc1CNCC(C)(C)O [Compound 1.055] | < 10 nM
COc1nc(-c2cccc(-c3cccc(NC(=O)c4cn(C)c(=O)n(C)c4=O)c3C)c2Cl)ccc1CNCCO [Compound 1.056] | < 10 nM
COc1nc(-c2cccc(-c3cccc(NC(=O)c4cn(C)c(=O)n(C)c4=O)c3Cl)c2Cl)ccc1CNCC(C)(C)C(N)=O [Compound 1.057] | < 10 nM
COc1nc(-c2cccc(-c3cccc(NC(=O)c4cn(C)c(=O)n(C)c4=O)c3Cl)c2Cl)ccc1CN(C)C[C@@H]1CCC(=O)N1 [Compound 1.058] | 10 to 1000 nM
COc1nc(-c2cccc(-c3cccc(NC(=O)c4cn(C)c(=O)n(C)c4=O)c3F)c2Cl)ccc1CNC[C@@H]1CCC(=O)N1 [Compound 1.059] | < 10 nM
COc1nc(-c2cccc(-c3cccc(NC(=O)c4cncn(C)c4=O)c3Cl)c2Cl)ccc1CNC[C@@H]1CCC(=O)N1 [Compound 1.060] | < 10 nM
COc1nc(-c2cccc(-c3cccc(NC(=O)c4cn(C)c(=O)n(C)c4=O)c3)c2Cl)ccc1CNC[C@@H]1CCC(=O)N1 [Compound 1.061] | < 10 nM
COc1nc(-c2cccc(-c3cccc(NC(=O)c4cn(C)c(=O)n(C)c4=O)c3C)c2C)ccc1CNC[C@@H]1CCC(=O)N1 [Compound 1.062] | < 10 nM
COc1nc(-c2cccc(-c3cccc(NC(=O)c4cn(C)c(=O)n(C)c4=O)c3Cl)c2F)ccc1CNC[C@@H]1CCC(=O)N1 [Compound 1.063] | < 10 nM
COc1nc(-c2cccc(-c3cccc(NC(=O)c4nn(C)c(=O)n(C)c4=O)c3Cl)c2Cl)ccc1CNC[C@@H]1CCC(=O)N1 [Compound 1.064] | < 10 nM
COc1nc(-c2cccc(-c3cccc(NC(=O)c4c[nH]c(=O)n(C)c4=O)c3C)c2Cl)ccc1CNC[C@@H]1CCC(=O)N1 [Compound 1.065] | < 10 nM
COc1nc(-c2cccc(-c3cccc(NC(=O)c4cn(C)c(=O)n(C)c4=O)c3Cl)c2Cl)ccc1CNC[C@H]1CCC(=O)N1 [Compound 1.066] | < 10 nM
COc1nc(-c2cccc(-c3cccc(NC(=O)c4cn(C)c(=O)n(C)c4=O)c3Cl)c2)ccc1CNC[C@@H]1CCC(=O)N1 [Compound 1.067] | < 10 nM
COc1nc(-c2cccc(-c3cccc(NC(=O)c4cn(C)c(=O)n(C)c4=O)c3Cl)c2C)ccc1CNC[C@@H]1CCC(=O)N1 [Compound 1.068] | < 10 nM

The remaining lines, values ahead:

IC50 | Structure (SMILES)
< 10 nM | COc1nc(-c2cccc(-c3cccc(NC(=O)c4cn(C)c(=O)n(C)c4=O)c3C)c2Cl)ccc1CN1CC2(CNC(=O)N2)C1 [Compound 1.025]
< 10 nM | COc1nc(-c2cccc(-c3cccc(NC(=O)c4cn(C)c(=O)n(C)c4=O)c3C)c2C#N)ccc1CN[C@@H]1CCOC[C@@H]1O [Compound 1.026]
< 10 nM | COc1nc(-c2cccc(-c3cccc(NC(=O)c4cn(C)c(=O)n(C)c4=O)c3Cl)c2Cl)ccc1CN1CC[C@@](C)(O)C1 [Compound 1.027]
< 10 nM | COc1nc(-c2cccc(-c3cccc(NC(=O)c4cn(C)c(=O)n(C)c4=O)c3C)c2Cl)ccc1CNC[C@@H](C)O [Compound 1.028]
< 10 nM | COc1nc(-c2cccc(-c3cccc(NC(=O)c4cn(C)c(=O)n(C)c4=O)c3C)c2Cl)ccc1CNC[C@H](C)O [Compound 1.029]
< 10 nM | COc1nc(-c2cccc(-c3cccc(NC(=O)c4cn(C)c(=O)n(C)c4=O)c3Cl)c2Cl)ccc1CNC[C@@H](O)CO [Compound 1.030]
< 10 nM | CNCc1ccc(-c2cccc(-c3cccc(NC(=O)c4cn(C)c(=O)n(C)c4=O)c3C)c2Cl)nc1OC [Compound 1.031]
< 10 nM | COc1nc(-c2cccc(-c3cccc(NC(=O)c4cn(C)c(=O)n(C)c4=O)c3Cl)c2Cl)ccc1CNC[C@@H](C)O [Compound 1.032]
< 10 nM | COc1nc(-c2cccc(-c3cccc(NC(=O)c4cn(C)c(=O)n(C)c4=O)c3Cl)c2Cl)ccc1CNC[C@H](C)O [Compound 1.034]
< 10 nM | COc1nc(-c2cccc(-c3cccc(NC(=O)c4cn(C)c(=O)n(C)c4=O)c3Cl)c2Cl)ccc1CNCC1(O)CC1 [Compound 1.035]
< 10 nM | COc1nc(-c2cccc(-c3cccc(NC(=O)c4cn(C)c(=O)n(C)c4=O)c3Cl)c2Cl)ccc1CNCCCO [Compound 1.036]
< 10 nM | COc1nc(-c2cccc(-c3cccc(NC(=O)c4cn(C)c(=O)n(C)c4=O)c3C)c2Cl)ccc1CNC(C)C [Compound 1.037]
< 10 nM | COc1nc(-c2cccc(-c3cccc(NC(=O)c4cn(C)c(=O)n(C)c4=O)c3C)c2Cl)ccc1CN1CC(C)(O)C1 [Compound 1.038]
< 10 nM | COc1nc(-c2cccc(-c3cccc(NC(=O)c4cn(C)c(=O)n(C)c4=O)c3Cl)c2Cl)ccc1CNCCO [Compound 1.039]
< 10 nM | COc1nc(-c2cccc(-c3cccc(NC(=O)c4cn(C)c(=O)n(C)c4=O)c3C)c2Cl)ccc1CNCC(C)(C)C(N)=O [Compound 1.040]
< 10 nM | COc1nc(-c2cccc(-c3cccc(NC(=O)c4cn(C)c(=O)n(C)c4=O)c3C)c2Cl)ccc1CN1CC(C(C)(C)O)C1 [Compound 1.041]
< 10 nM | COc1nc(-c2cccc(-c3cccc(NC(=O)c4cn(C)c(=O)n(C)c4=O)c3C)c2Cl)ccc1CN[C@H]1CCOC[C@H]1O [Compound 1.042]
